Data from patent publication US20220317138A1, “METHODS FOR DETERMINING THE CONCENTRATION OF A CARBAPENEM ANTIBIOTIC IN A BIOLOGICAL SAMPLE” (priority 2019, published 2022).
Read-outs that look alike come from different tables or passages of the source.

Key:
[1] = target: Imp1 beta-lactamase (class B) (Serratia marcescens, UniProt P52699); format: biochemical; settings: nitrocefin reporter
[2] = target: T1, beta-lactamase class D OXA-48 (Klebsiella pneumoniae, UniProt Q6XEC0); format: biochemical; settings: for Accuracy <> (average) / [Meropenem] <> (average): average of 5 replicates
Source text: The specificity (or selectivity) of the method according to an embodiment of the invention is defined as the ability of the method to measure the concentration of a carbapenem antibiotic (such as meropenem) in presence of an excess of another beta-lactam antibiotic (second beta-lactam) currently used in ICUs (see Table 4).
To determine the specificity of the method illustrating the invention for carbapenem antibiotics, in particular meropenem, versus other beta-lactam antibiotics, stock-solutions of second beta-lactam antibiotics were prepared in water.
An excess of a second beta-lactam concentration of up to 10 times the concentration of meropenem was used.

[3] = target: P99 beta-lactamase (class C) (Enterobacter cloacae, UniProt P05364); format: biochemical; settings: nitrocefin reporter
[4] = system: AmpCHD beta-lactamase (class C); test: Screening of beta-lactamases by competition, nitrocefin as reporter substrate; format: biochemical
[5] = system: Imp4 beta-lactamase (class B); test: as above; format: biochemical
[6] = target: Ndm1 beta-lactamase (class B) (Klebsiella pneumoniae, UniProt C7C422); format: biochemical; settings: nitrocefin reporter
[7] = system: Per2 beta-lactamase (class A); test: Screening of beta-lactamases by competition, nitrocefin as reporter substrate; format: biochemical
[8] = target: T1, beta-lactamase class D OXA-48; format: biochemical; settings: OXA-48, nitrocefin, 482 nm
[9] = target: OXA-48 (Klebsiella pneumoniae, UniProt Q6XEC0); settings: OXA-48, for meropenem; cited from earlier work
[10] = system: OXA-163; settings: OXA-163, for meropenem; cited from earlier work
[11] = target: Kpc2 beta-lactamase (class A) (Klebsiella pneumoniae, UniProt Q9F663); format: biochemical; settings: nitrocefin reporter
[12] = target: BlaP beta-lactamase (class A) (Bacillus licheniformis, UniProt P00808); format: biochemical; settings: nitrocefin reporter
[13] = target: CTXM15 beta-lactamase (class A) (Escherichia coli, UniProt Q9EXV5); format: biochemical; settings: nitrocefin reporter
[14] = target: Oxa48 beta-lactamase (class D) (Klebsiella pneumoniae, UniProt Q6XEC0); format: biochemical; settings: nitrocefin reporter
[15] = Meropenem 1.2 mg/L, second β-lactam 10.0 mg/L (8.4 times excess)
[16] = Meropenem 20.0 mg/L, second β-lactam 200.0 mg/L (10 times excess)

T1 sequence (Q6XEC0 23-265 limits assumed): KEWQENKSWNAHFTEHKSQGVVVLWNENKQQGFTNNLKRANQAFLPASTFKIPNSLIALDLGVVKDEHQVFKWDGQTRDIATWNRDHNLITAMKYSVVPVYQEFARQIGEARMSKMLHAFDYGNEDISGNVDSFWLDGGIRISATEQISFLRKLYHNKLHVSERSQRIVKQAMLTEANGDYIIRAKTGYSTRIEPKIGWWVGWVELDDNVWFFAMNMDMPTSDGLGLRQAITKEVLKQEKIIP
P99 beta-lactamase (class C), sequence (P05364 21-381): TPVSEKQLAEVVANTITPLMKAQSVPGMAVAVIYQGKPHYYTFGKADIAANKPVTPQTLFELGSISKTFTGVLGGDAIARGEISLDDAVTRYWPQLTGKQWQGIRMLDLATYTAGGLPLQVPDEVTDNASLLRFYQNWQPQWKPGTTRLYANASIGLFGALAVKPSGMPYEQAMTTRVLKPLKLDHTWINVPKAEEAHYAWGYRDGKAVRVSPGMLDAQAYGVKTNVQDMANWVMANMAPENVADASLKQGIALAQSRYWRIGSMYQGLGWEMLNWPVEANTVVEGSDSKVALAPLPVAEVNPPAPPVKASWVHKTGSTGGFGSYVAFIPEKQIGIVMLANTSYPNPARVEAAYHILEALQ
Oxa48 beta-lactamase (class D), sequence (Q6XEC0 23-265 limits assumed): as the sequence (Q6XEC0 23-265 limits assumed) above
CTXM15 beta-lactamase (class A), sequence (Q9EXV5 29-291 limits assumed): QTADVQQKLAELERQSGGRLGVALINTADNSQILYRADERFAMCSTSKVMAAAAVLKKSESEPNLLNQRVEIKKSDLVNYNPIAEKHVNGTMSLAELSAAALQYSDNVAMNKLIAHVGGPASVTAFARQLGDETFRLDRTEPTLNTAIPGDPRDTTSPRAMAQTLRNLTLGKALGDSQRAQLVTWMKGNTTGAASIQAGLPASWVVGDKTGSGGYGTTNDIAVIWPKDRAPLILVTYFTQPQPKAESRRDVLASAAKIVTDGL
Imp1 beta-lactamase (class B), sequence (P52699 19-246 limits assumed): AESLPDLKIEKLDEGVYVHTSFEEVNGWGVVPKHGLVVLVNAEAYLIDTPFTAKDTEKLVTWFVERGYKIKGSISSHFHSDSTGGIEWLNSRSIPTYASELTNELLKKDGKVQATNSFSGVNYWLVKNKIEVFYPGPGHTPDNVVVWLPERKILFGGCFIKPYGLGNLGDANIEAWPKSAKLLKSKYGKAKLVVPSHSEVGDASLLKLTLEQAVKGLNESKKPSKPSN
OXA-48, sequence (Q6XEC0 23-265 limits assumed): as the sequence (Q6XEC0 23-265 limits assumed) above
BlaP beta-lactamase (class A), sequence (P00808 27-307 limits assumed): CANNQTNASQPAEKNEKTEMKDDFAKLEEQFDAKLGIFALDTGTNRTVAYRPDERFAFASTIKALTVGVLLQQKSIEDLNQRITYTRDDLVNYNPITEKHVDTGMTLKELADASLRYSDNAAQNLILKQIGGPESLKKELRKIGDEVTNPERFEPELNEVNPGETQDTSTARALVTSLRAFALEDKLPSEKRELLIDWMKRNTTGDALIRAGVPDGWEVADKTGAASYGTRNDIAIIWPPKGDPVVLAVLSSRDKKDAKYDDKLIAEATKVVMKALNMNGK
Ndm1 beta-lactamase (class B), sequence (C7C422 29-270 limits assumed): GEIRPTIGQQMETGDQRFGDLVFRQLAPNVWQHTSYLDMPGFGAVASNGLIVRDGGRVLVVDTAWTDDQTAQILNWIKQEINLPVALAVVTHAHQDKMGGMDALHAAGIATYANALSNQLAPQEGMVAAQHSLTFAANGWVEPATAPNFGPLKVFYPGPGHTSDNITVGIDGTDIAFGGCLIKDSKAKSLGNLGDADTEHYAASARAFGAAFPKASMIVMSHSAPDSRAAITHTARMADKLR
Kpc2 beta-lactamase (class A), sequence (Q9F663 25-293 limits assumed): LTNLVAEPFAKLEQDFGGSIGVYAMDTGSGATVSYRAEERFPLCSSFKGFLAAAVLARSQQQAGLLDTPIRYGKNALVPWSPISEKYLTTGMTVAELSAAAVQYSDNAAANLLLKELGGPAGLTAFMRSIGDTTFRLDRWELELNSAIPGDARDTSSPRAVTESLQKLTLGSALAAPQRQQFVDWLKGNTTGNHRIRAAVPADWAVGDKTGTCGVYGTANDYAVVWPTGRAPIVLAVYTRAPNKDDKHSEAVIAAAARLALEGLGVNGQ

| Structure (SMILES) | Accuracy <> (average) [2, 15] [%] | [Meropenem] <> (average) [2, 15] [mg/L] | Accuracy Replicate 1 [2, 15] [%] | [Meropenem] Replicate 1 [2, 15] [mg/L] | Accuracy Replicate 2 [2, 15] [%] | [Meropenem] Replicate 2 [2, 15] [mg/L] | Accuracy Replicate 3 [2, 15] [%] | [Meropenem] Replicate 3 [2, 15] [mg/L] | Accuracy Replicate 4 [2, 15] [%] | [Meropenem] Replicate 4 [2, 15] [mg/L] | Accuracy Replicate 5 [2, 15] [%] | [Meropenem] Replicate 5 [2, 15] [mg/L] | Accuracy <> (average) [2, 16] [%] | [Meropenem] <> (average) [2, 16] [mg/L] | Accuracy Replicate 1 [2, 16] [%] | [Meropenem] Replicate 1 [2, 16] [mg/L] | Accuracy Replicate 2 [2, 16] [%] | [Meropenem] Replicate 2 [2, 16] [mg/L] | Accuracy Replicate 3 [2, 16] [%] | [Meropenem] Replicate 3 [2, 16] [mg/L] | also measured |
| --- | --- | --- | --- | --- | --- | --- | --- | --- | --- | --- | --- | --- | --- | --- | --- | --- | --- | --- | --- | --- | --- |
| Cn1nnnc1SCC1=C(C(=O)O)N2C(=O)[C@@H](NC(=O)[C@H](O)c3ccccc3)[C@H]2SC1 [Cefamandole ®, Cefamandole] | 115 | 1.3 | 112 | 1.3 | 116 | 1.3 | 114 | 1.3 | 123 | 1.4 | 112 | 1.3 | 99 | 22.0 | 97 | 21.5 | 98 | 21.9 | 99 | 22.2 | hydrolysis rate symbol, (Vmax/V0)-1 [1]: ++ (1-10); Accuracy Replicate 4 [2, 16]: 105%; [Meropenem] Replicate 4 [2, 16]: 23.4 mg/L; Accuracy Replicate 5 [2, 16]: 94%; [Meropenem] Replicate 5 [2, 16]: 21.0 mg/L; hydrolysis rate symbol, (Vmax/V0)-1 [3]: ++ (1-10); hydrolysis rate symbol, (Vmax/V0)-1 [4]: ++ (1-10); hydrolysis rate symbol, (Vmax/V0)-1 [5]: ++ (1-10); hydrolysis rate symbol, (Vmax/V0)-1 [6]: + (0.1-1); hydrolysis rate symbol, (Vmax/V0)-1 [7]: + (0.1-1) |
| C[C@@H](O)[C@H]1C(=O)N2C(C(=O)O)=C(S[C@@H]3CN[C@H](C(=O)N(C)C)C3)[C@H](C)[C@H]12 [Meropenem, meropenem] | 100 | 1.2 | 98 | 1.1 | 100 | 1.2 | 97 | 1.1 | 108 | 1.3 | 97 | 1.1 | 100 | 20.2 | 103 | 20.7 | 104 | 20.9 | 98 | 19.8 | hydrolysis rate symbol, (Vmax/V0)-1 [1]: + (0.1-1); Accuracy Replicate 4 [2, 16]: 98%; [Meropenem] Replicate 4 [2, 16]: 19.9 mg/L; Accuracy Replicate 5 [2, 16]: 97%; [Meropenem] Replicate 5 [2, 16]: 19.6 mg/L; hydrolysis rate symbol, (Vmax/V0)-1 [3]: +++ (10-100); lower limit of quantification (LLOQ) [8]: 0.5 mg/L; upper limit of quantification (ULOQ) [8]: 20 mg/L; Km [9]: 200 µM; hydrolysis rate symbol, (Vmax/V0)-1 [4]: + (0.1-1); Km [10]: 2200 µM; hydrolysis rate symbol, (Vmax/V0)-1 [11]: + (0.1-1); hydrolysis rate symbol, (Vmax/V0)-1 [5]: + (0.1-1); hydrolysis rate symbol, (Vmax/V0)-1 [12]: + (0.1-1); hydrolysis rate symbol, (Vmax/V0)-1 [13]: +++ (10-100); hydrolysis rate symbol, (Vmax/V0)-1 [14]: +++ (10-100) |
| CC1(C)S[C@@H]2[C@H](NC(=O)[C@H](C(=O)O)c3ccsc3)C(=O)N2[C@H]1C(=O)O [Ticarpen ®] | 112 | 1.3 | 121 | 1.4 | 122 | 1.4 | 102 | 1.2 | 111 | 1.3 | 105 | 1.2 | 101 | 22.6 | 102 | 22.7 | 105 | 23.4 | 104 | 23.1 | Accuracy Replicate 4 [2, 16]: 98%; [Meropenem] Replicate 4 [2, 16]: 21.9 mg/L; Accuracy Replicate 5 [2, 16]: 98%; [Meropenem] Replicate 5 [2, 16]: 21.9 mg/L; hydrolysis rate symbol, (Vmax/V0)-1 [3]: ++++ (>100); hydrolysis rate symbol, (Vmax/V0)-1 [4]: + (0.1-1); hydrolysis rate symbol, (Vmax/V0)-1 [7]: ++ (1-10); hydrolysis rate symbol, (Vmax/V0)-1 [13]: ++ (1-10); hydrolysis rate symbol, (Vmax/V0)-1 [14]: + (0.1-1) |
